Like-named read-outs stand apart in the source and are kept apart here.
Assays:
human OX1 receptor = target: T1, human OX1 receptor (Homo sapiens, UniProt O43613); experiment: Measurement of orexin receptor antagonistic activity (calcium fluorescence, FLIPRtetra); format: cell-based; settings: CHO, read-out: Human Orexin1 receptor inhibition (at 10 μM)
T1 construct: expressed in transfected cells; host or cells: CHO cells
T1 sequence (O43613 1-425): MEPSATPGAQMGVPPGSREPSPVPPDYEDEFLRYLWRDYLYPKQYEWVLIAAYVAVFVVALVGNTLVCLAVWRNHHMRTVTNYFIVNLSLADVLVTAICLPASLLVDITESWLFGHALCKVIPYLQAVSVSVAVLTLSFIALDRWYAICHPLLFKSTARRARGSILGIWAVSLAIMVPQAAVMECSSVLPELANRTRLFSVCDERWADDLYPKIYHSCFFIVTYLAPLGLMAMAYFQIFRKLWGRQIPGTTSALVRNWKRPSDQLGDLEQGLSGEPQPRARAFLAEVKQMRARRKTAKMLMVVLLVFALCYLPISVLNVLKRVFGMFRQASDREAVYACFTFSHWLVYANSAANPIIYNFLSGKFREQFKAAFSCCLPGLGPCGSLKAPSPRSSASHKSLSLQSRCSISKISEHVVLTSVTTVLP
Method in brief: (§1)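 CHO cells expressing human OX1 or OX2 receptor, cultured one day. Compound in HBSS/20 mM HEPES/0.1% BSA added, then orexin-A at 1 nM final (OX1) or 0.3 nM final (OX2); calcium fluorescence by FLIPRtetra every 1 s for 2 min.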

human OX2 receptor = target: T2, human OX2 receptor (Homo sapiens, UniProt O43614); experiment: as above; format: cell-based; settings: CHO, read-out: Human Orexin2 receptor inhibition (at 10 μM)
T2 construct: expressed in transfected cells; host or cells: CHO cells
T2 sequence (O43614 1-444): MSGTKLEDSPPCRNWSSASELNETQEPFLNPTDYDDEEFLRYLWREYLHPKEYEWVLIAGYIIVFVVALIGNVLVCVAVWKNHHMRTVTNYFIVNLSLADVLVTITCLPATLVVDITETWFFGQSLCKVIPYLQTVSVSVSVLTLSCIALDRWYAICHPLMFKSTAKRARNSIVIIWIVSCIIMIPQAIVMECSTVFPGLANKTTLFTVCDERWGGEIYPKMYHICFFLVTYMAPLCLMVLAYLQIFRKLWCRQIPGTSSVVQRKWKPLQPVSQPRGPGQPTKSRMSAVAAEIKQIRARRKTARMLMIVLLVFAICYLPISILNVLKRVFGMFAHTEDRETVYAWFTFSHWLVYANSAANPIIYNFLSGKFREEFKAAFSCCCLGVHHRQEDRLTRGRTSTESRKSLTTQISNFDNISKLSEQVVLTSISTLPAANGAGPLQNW
Method in brief: as §1

[1] = 10 μM test compound, CHO cells expressing human OX1 receptor, OX-A 1 nM
[2] = 10 μM test compound, CHO cells expressing human OX2 receptor, OX-A 0.3 nM

inhibition at 10 µM (human OX1 receptor; [1]) | inhibition at 10 µM (human OX2 receptor; [2]) | Structure (SMILES) | inhibition at 10 µM (human OX1 receptor) | inhibition at 10 µM (human OX2 receptor)
36% | 95% | Cc1ccc(-n2nccn2)c(C(=O)N2CCN(c3cc(C#N)ccn3)OC[C@H]2C)c1 [Example 136, 2-((6R)-6-methyl-5-(5-methyl-2-(2H-1,2,3-triazol-2-yl)benzoyl)-1,2,5-oxadiazepan-2-yl)isonicotinonitrile] |  | 
 |  | COc1ccnc(N2CCN(C(=O)c3cc(C)ccc3-n3nccn3)[C@H](C)CO2)c1 [Example 137, ((6R)-2-(4-methoxypyridin-2-yl)-6-methyl-1,2,5-oxadiazepan-5-yl) (5-methyl-2-(2H-1,2,3-triazol-2-yl)phenyl)methanone] | 93% | 100%
 |  | Cc1ccc(-n2nccn2)c(C(=O)N2CCN(c3cccc(-n4cccn4)n3)OC[C@H]2C)c1 [Example 138, ((6R)-6-methyl-2-(6-(1H-pyrazol-1-yl)pyridin-2-yl)-1,2,5-oxadiazepan-5-yl) (5-methyl-2-(2H-1,2,3-triazol-2-yl)phenyl)methanone] | 96% | 95%
 |  | Cc1ccc(-n2nccn2)c(C(=O)N2CCN(c3cc(C(F)F)ccn3)OC[C@H]2C)c1 [Example 139, ((6R)-2-(4-(difluoromethyl)pyridin-2-yl)-6-methyl-1,2,5-oxadiazepan-5-yl) (5-methyl-2-(2H-1,2,3-triazol-2-yl)phenyl)methanone] | 54% | 98%
 |  | Cc1ccc(-n2nccn2)c(C(=O)N2CCN(c3cccc(C#N)c3)OC[C@H]2C)c1 [Example 140, 3-((6R)-6-methyl-5-(5-methyl-2-(2H-1,2,3-triazol-2-yl)benzoyl)-1,2,5-oxadiazepan-2-yl)benzonitrile] | 21% | 88%
 |  | Cc1ccc(N2CCN(C(=O)c3cc(C)ccc3-n3nccn3)[C@H](C)CO2)nc1 [Example 141, ((6R)-6-methyl-2-(5-methylpyridin-2-yl)-1,2,5-oxadiazepan-5-yl) (5-methyl-2-(2H-1,2,3-triazol-2-yl)phenyl)methanone] | 71% | 99%
 |  | Cc1cc(C)nc(N2CCN(C(=O)c3cc(C)ccc3-n3nccn3)[C@H](C)CO2)c1 [Example 142, ((6R)-2-(4,6-dimethylpyridin-2-yl)-6-methyl-1,2,5-oxadiazepan-5-yl) (5-methyl-2-(2H-1,2,3-triazol-2-yl)phenyl)methanone] | 99% | 97%
 |  | Cc1ccc(-n2nccn2)c(C(=O)N2CCN(c3cc(C)nc(C)c3)OC[C@H]2C)c1 [Example 143, ((6R)-2-(2,6-dimethylpyridin-4-yl)-6-methyl-1,2,5-oxadiazepan-5-yl) (5-methyl-2-(2H-1,2,3-triazol-2-yl)phenyl)methanone] | 1% | 44%
 |  | Cc1ccc(-n2nccn2)c(C(=O)N2CCN(c3ccnc(C)c3)OC[C@H]2C)c1 [Example 144, ((6R)-6-methyl-2-(2-methylpyridin-4-yl)-1,2,5-oxadiazepan-5-yl) (5-methyl-2-(2H-1,2,3-triazol-2-yl)phenyl)methanone] | 14% | 12%
 |  | Cc1ccc(-n2nccn2)c(C(=O)N2CCN(c3ncccc3C)OC[C@H]2C)c1 [Example 145, ((6R)-6-methyl-2-(3-methylpyridin-2-yl)-1,2,5-oxadiazepan-5-yl) (5-methyl-2-(2H-1,2,3-triazol-2-yl)phenyl)methanone] | 25% | 82%
 |  | Cc1ccc(-n2nccn2)c(C(=O)N2CCN(c3ccnc(C(F)(F)F)c3)OC[C@H]2C)c1 [Example 146, (5-methyl-2-(2H-1,2,3-triazol-2-yl)phenyl) ((6R)-6-methyl-2-(2-(trifluoromethyl)pyridin-4-yl)-1,2,5-oxadiazepan-5-yl)methanone] | 66% | 88%
60% | 101% | Cc1cc(C)nc(N2CCN(C(=O)c3ccccc3-n3nccn3)[C@H](C)CO2)n1 [Example 147, ((6R)-2-(4,6-dimethylpyrimidin-2-yl)-6-methyl-1,2,5-oxadiazepan-5-yl) (2-(2H-1,2,3-triazol-2-yl)phenyl)methanone] |  | 

Source: patent US10131653B2, “Heterocyclic compound” (TAKEDA PHARMACEUTICAL COMPANY LIMITED, priority 2015, dated 2018)
